Test system: human embryonic stem cell line H1
Experiment: FACS protein expression following 5-day activin A treatment (Table IIC)
Format: cell-based
Settings: 5-day AA treatment
Experimental: The level of expression of definitive endoderm markers was examined by PCR (FIGS. 1A and 1B), FACS (results summarized in Table I), and immunohistochemistry (FIGS. 2A, 2B and 2C).
Adhered cells were removed from culture plates by five-minute incubation with TrypLE™ Express solution (Invitrogen, CA). Released cells were resuspended in human embryonic stem cell culture medium and recovered by centrifugation, followed by washing and resuspending the cells in a staining buffer consisting of 2% BSA, 0.05% sodium azide in PBS (Sigma, MO). As appropriate, the cells were Fc-receptor blocked for 15 minutes using a 0.1% γ-globulin (Sigma) solution. […] Controls included appropriate isotype matched antibodies, unstained cells, and cells stained only with secondary conjugated antibody. All incubations with antibodies were performed for 30 mins at 4° C. after which the cells were washed with the staining buffer. Samples that were stained with unconjugated primary antibodies were incubated for an additional 30 mins at 4° C. with secondary conjugated PE or -APC labeled antibodies. See Table I for a list of secondary antibodies used. Washed cells were pelleted and resuspended in the staining buffer, and the cell surface molecules were identified using a FACS Array (BD Biosciences) instrument, collecting at least 10,000 events.

**Q.** For “Activin A: a member of the TGFβ superfamily; growth factor (R&D Systems) used to differentiate human embryonic stem cells”, which “CXCR4+ cells (FACS)” value is on record?
**A.** 92.78%

**Q.** And the “CXCR4+/C-kit+ cells (FACS)” value?
**A.** 92.90%

**Q.** And the “CXCR4+/CD9+ cells (FACS)” value?
**A.** 7.03%

**Q.** What about the “CXCR4+/CD99+ cells (FACS)” value of the same substance?
**A.** 88.78%

**Q.** And the “CXCR4+/EPCAM cells (FACS)” value?
**A.** 87.99%

Reference: US11708562B2, “Differentiation of human embryonic stem cells” (Janssen Biotech, Inc., priority 2006, dated 2023)
